“Also recorded” adds a separate entry of the source. Where two headings read alike, the source gives them in different places.
Assays:
rat A3 receptor = molecular target: T1, rat A3 receptor (Rattus norvegicus, UniProt P28647); test: Binding of [35S]GTP-γ-S to rat RBL-2H3 mast cell membranes; format: biochemical; details: for effect on binding of [35S]GTP-γ-S: FIG. 1, rat RBL-2H3 mast cell membranes
T1 sequence (P28647 1-320): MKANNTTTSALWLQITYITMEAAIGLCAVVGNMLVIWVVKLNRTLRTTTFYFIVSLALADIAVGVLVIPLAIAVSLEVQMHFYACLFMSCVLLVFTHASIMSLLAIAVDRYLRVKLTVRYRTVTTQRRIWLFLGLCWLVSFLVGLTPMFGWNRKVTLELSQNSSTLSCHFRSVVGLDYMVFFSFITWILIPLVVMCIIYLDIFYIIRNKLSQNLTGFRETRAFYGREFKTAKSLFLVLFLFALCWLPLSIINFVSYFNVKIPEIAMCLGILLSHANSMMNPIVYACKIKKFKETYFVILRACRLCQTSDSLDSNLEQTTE
Experimental: The binding for [^35 S]GTP-y-S (Ameersham, Chicago Ill., specific activity 1275 Ci/mmol) was carried out using rat RBL-2H3 mast cell membranes by the general method of Lorenzen et al.^47 Membranes were suspended in a buffer containing 50 mM Tris, 3 units/mL adenosine deaminase, 100 mM NaCl, and 10 mM MgCl2 (pH 7.4) and a protein concentration of 1 to 10 μg per tube. The membrane suspension was preincubated with […], R-PIA and/or riboflavin in a final volume of 125 μL buffer at 30° C. for 60 min and then transferred to ice for 20 min. [^35 S]GTP-γy-S was added to a final concentration of 0.1 nM in a total volume of 500 μL and the mixture was incubated for 30 min at 30° C. Non-specific binding was determined in the presence of 10 μM GTP-γ-S (Sigma, St. Louis Mo.). Incubation of the reaction mixture was terminated by filtration over a GF/B glass filter using a Brandell cell harvester and washed with the same buffer.
The assay involved the agonist-induced inhibition of binding of guanine nucleotide to rat RBL-2H3 mast cell membranes, which contain a high density of A3 receptors.

[1] = molecular target: T2, rat brain A2A adenosine receptor (Rattus norvegicus, UniProt P30543); test: Displacement of specific [3H]CGS 21680 binding in rat striatal membranes
T2 construct: A2A receptors for rat striatal membranes; from tissue; host or cells: rat striatal membranes
Experimental: For binding experients, membrane homogenates were frozen and stored at -20° C. for greater than 2 months. Adenosine deaminase (ADA) was purchased from Boehringer Mannheim (Indianapolis, Ind.).
(§1) Nonspecific binding was determined in the presence of 200 μM NECA. […] Additional deaminase was not added during incubation with the radioligand.

[2] = molecular target: T3, rat brain A1 adenosine receptor (Rattus norvegicus, UniProt P25099)
T3 sequence (P25099 1-326): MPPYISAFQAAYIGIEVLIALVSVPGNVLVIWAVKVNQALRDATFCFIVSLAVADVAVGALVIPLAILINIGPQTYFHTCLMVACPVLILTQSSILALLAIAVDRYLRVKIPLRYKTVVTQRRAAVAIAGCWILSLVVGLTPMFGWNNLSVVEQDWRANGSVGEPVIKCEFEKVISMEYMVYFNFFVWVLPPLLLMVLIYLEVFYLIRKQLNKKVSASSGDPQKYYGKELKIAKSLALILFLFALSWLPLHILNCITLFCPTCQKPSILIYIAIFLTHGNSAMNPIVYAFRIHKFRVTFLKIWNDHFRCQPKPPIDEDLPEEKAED
Experimental: (§2) Procedures for preparing rat brain membranes and Chinese hamster ovary (CHO) cell membranes were as reported^30, 38, 44. For binding experients, membrane homogenates were frozen and stored at -20° C. for greater than 2 months.
as §1

[3] = molecular target: T4, rat A3 adenosine receptor (Rattus norvegicus, UniProt P28647);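 also: radioligand binding on membrane homogenates, 1 h incubation at 37 °C in duplicate, gamma counting of filter-bound radioactivity, nonspecific binding defined using 200 µM NECA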
T4 sequence (P28647 1-320): T1 sequence (P28647 1-320)
Experimental: (§3) Procedures for preparing rat brain membranes and Chinese hamster ovary (CHO) cell membranes were as reported^30, 38, 44. For binding experients, membrane homogenates were frozen and stored at -20° C. for greater than 2 months. Adenosine deaminase (ADA) was purchased from Boehringer Mannheim (Indianapolis, Ind.).
(§4) Inhibitors were routinely dissolved in DMSO. […] Incubations were carried out in duplicate for 1 h at 37° C., and were terminated by rapid filtration over Whatman GF/B filters using a Brandell cell harvester (Brandell, Gaithersburg, Md.). Tubes were washed three times with 3 mL of buffer. Radioactivity was determined in a Beckman gamma 5500B γ-counter.
as §1

[4] = molecular target: T4, rat A3 adenosine receptor; details: for A1/A3: ratio of Ki (A1) to Ki (A3); for A1/A3 / A2A/A3: rat; for A2A/A3: ratio of Ki (A2A) to Ki (A3); for affinity and selectivity at A3 adenosine receptors: vs. A1 and A2 receptors
Experimental: as §3, §4, §1

[5] = molecular target: T3, rat brain A1 adenosine receptor; test: Displacement of specific [3H]R-PIA binding in rat brain (cortical) membranes; details: read-out: Ki (A1)
Experimental: as §2, §1

[6] = molecular target: T5, human A3 adenosine receptor (Homo sapiens, UniProt P0DMS8); test: Binding of [125I]-AB-MECA to HEK-293 cells stably expressing the human A3 receptor; details: read-out: affinity at human A3 adenosine receptors
T5 construct: expressed in transfected cells; host or cells: HEK-293 cells
T5 sequence (P0DMS8 1-318): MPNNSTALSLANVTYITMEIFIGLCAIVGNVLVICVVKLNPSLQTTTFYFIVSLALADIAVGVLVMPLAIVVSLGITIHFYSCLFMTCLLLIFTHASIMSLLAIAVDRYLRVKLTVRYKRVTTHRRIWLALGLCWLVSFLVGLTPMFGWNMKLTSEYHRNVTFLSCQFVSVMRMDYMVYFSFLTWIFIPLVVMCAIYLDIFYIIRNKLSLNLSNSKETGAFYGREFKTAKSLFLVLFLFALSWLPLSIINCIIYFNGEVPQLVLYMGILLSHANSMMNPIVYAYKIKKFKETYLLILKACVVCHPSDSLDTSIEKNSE
From the text: Inhibitors were routinely dissolved in DMSO.

[7] = molecular target: T3, rat brain A1 adenosine receptor; test: biochemical
Experimental: as §2, §1

A3 receptor = details: background, cited from earlier work
[8] = rat striatal membranes, [3H]CGS 21680, Ki ± SEM, n = 3-6

T2 sequence (P30543 whole entry): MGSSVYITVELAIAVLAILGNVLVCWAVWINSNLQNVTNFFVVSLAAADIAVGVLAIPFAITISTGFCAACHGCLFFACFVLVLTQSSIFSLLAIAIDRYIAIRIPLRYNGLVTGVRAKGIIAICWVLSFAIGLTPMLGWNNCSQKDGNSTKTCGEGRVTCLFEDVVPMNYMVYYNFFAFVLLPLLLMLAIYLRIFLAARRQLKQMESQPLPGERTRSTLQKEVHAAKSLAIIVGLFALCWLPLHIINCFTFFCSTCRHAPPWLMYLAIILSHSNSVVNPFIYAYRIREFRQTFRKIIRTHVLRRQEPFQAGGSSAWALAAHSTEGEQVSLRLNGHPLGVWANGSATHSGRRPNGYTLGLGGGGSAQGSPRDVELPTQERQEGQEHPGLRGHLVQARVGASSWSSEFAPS

CNC(=O)[C@H]1O[C@@H](n2cnc3c(NCc4cccc(I)c4)nc(Cl)nc32)[C@H](O)[C@@H]1O [Cl-IB-MECA, 2-chloro-N^6-(3-iodobenzyl)adenosine-5'-N-methyluronamide, reference compound]
effect on binding of [35S]GTP-γ-S (rat A3 receptor): increased binding of [^35 S]GTP-γ-S in a dose dependent manner

CCNC(=O)[C@H]1O[C@@H](n2cnc3c(NC(=O)c4ccc(-c5ccccc5)cc4)ncnc32)[C@H](O)[C@@H]1O [Compound 3a]
Ki [1, 8]: 3580 ± 850 nM | Ki [2]: 5.92 ± 1.04 nM | Ki [3]: 979 ± 22 nM | A1/A3 [4]: 0.006 | A2A/A3 [4]: 3.65

CCNC(=O)[C@H]1O[C@@H](n2cnc3c(NC(=O)Cc4ccc(Cl)cc4Cl)ncnc32)[C@H](O)[C@@H]1O [Compound 3b, N^6-(2,4-dichlorobenzyl-carbonylamino)-adenosine-5'-N-ethyluronamide]
Ki [1]: 26.6 ± 8.8 nM | Ki [2]: 16 ± 3.3 nM | Ki [3]: 167 ± 7 nM | A1/A3 [4]: 0.095 | A2A/A3 [4]: 0.16

CCNC(=O)[C@H]1O[C@@H](n2cnc3c(NC(=O)c4ccc(OC)cc4)ncnc32)[C@H](O)[C@@H]1O [Compound 3c]
Ki [1, 8]: 237 ± 46 nM | Ki [2]: 86.4 ± 14.2 nM | Ki [3]: 837 ± 142 nM | A1/A3 [4]: 0.10 | A2A/A3 [4]: 0.28

CCNC(=O)[C@H]1O[C@@H](n2cnc3c(NNC(=O)c4ccc(Cl)cc4)ncnc32)[C@H](O)[C@@H]1O [Compound 3d, N^6-(4-chlorophenyl-carbonylamino)-adenosine-5'-N-ethyluronamide]
Ki [1]: 1960 ± 300 nM | Ki [5]: 1170 ± 220 nM | A1/A3 [4]: 1.55 | A2A/A3 [4]: 2.59 | Ki ([4]; read-out: Ki (A3)): 754 ± 132 nM

CCNC(=O)[C@H]1O[C@@H](n2cnc3c(NC(=O)c4ccccc4)ncnc32)[C@H](O)[C@@H]1O [Compound 3e]
Ki [1, 8]: 670 ± 211 nM | Ki [2]: 252 ± 52 nM | Ki [3]: 824 ± 126 nM | A1/A3 [4]: 0.30 | A2A/A3 [4]: 0.81

CCNC(=O)[C@H]1O[C@@H](n2cnc3c(NC(=O)NCc4ccccc4)ncnc32)[C@H](O)[C@@H]1O [Compound 3f, N^6-(benzylcarbamoylamino)-adenosine-5'-N-ethyluronamide]
Ki [1, 8]: 1790 ± 230 nM | Ki [2]: 171 ± 15 nM | Ki [3]: 38.3 ± 6.4 nM | A1/A3 [4]: 4.46 | A2A/A3 [4]: 46.8

CCNC(=O)[C@H]1O[C@@H](n2cnc3c(NC(=O)Nc4ccc(S(N)(=O)=O)cc4)ncnc32)[C@H](O)[C@@H]1O [Compound 3g, N^6-(4-sulfonamido-phenylcarbamoyl)-adenosine-5'-N-ethyluronamide]
Ki [1, 8]: 1180 ± 360 nM | Ki [6]: 56.1 ± 9.1 nM | effect on binding of [35S]GTP-γ-S (rat A3 receptor): about as effective as the potent A3 agonists I-AB-MECA and Cl-IB-MECA; also recorded: greater potency than NECA; also recorded: increased binding of [^35 S]GTP-γ-S in a dose dependent manner | agonism at rat A3 receptor (rat A3 receptor; functional assay, rat RBL-2H3 mast cell membranes): full agonist | Ki [2]: 453 ± 141 nM | Ki [3]: 9.73 ± 0.75 nM | Ki [4]: 9.7 to 107 nM | A1/A3 [4]: 46.5 | A2A/A3 [4]: 121.2 | Ki ([4]; read-out: affinity at A3 receptors, rat A3, running text): 9.7 nM

CCNC(=O)[C@H]1O[C@@H](n2cnc3c(NC(=O)Nc4ccc(C(C)=O)cc4)ncnc32)[C@H](O)[C@@H]1O [Compound 3h, N^6-(4-acetyl-phenylcarbamoyl)-adenosine-5'-N-ethyluronamide]
Ki [1, 8]: 1050 ± 270 nM | Ki [2]: 72.7 ± 11.8 nM | Ki [3]: 20.9 ± 7.51 nM | Ki [4]: 9.7 to 107 nM | A1/A3 [4]: 3.47 | A2A/A3 [4]: 50.2 | affinity and selectivity at A3 adenosine receptors [4]: relatively high affinity and selectivity at A3 adenosine receptors

CCNC(=O)[C@H]1O[C@@H](n2cnc3c(NC(=O)N[C@H](C)c4ccccc4)ncnc32)[C@H](O)[C@@H]1O [Compound 3i, N^6-((R)-α-phenylethylcarbamoyl)-adenosine-5'-N-ethyluronamide]
Ki [1, 8]: 279 ± 171 nM | Ki [2]: 433 ± 171 nM | Ki [3]: 16.3 ± 3.7 nM | A1/A3 [4]: 26.5 | A2A/A3 [4]: 17.1

CCNC(=O)[C@H]1O[C@@H](n2cnc3c(NC(=O)N[C@@H](C)c4ccccc4)ncnc32)[C@H](O)[C@@H]1O [Compound 3j, N^6-((S)-α-phenylethylcarbamoyl)-adenosine-5'-N-ethyluronamide]
Ki [1, 8]: 2970 ± 930 nM | Ki [2]: 537 ± 33 nM | Ki [3]: 319 ± 134 nM | A1/A3 [4]: 1.68 | A2A/A3 [4]: 9.3 | affinity and selectivity at A3 adenosine receptors [4]: relatively high affinity and selectivity at A3 adenosine receptors

CCNC(=O)[C@H]1O[C@@H](n2cnc3c(NC(=O)Nc4cc(C)on4)ncnc32)[C@H](O)[C@@H]1O [Compound 3k, N^6-(5-methyl-isoxazol-3-yl-carbamoyl)-adenosine-5'-N-ethyluronamide]
Ki [1, 8]: 884 ± 232 nM | Ki [2]: 146 ± 39 nM | Ki [3]: 532 ± 240 nM | A1/A3 [4]: 0.27 | A2A/A3 [4]: 1.66

CCNC(=O)[C@H]1O[C@@H](n2cnc3c(NC(=O)Nc4nncs4)ncnc32)[C@H](O)[C@@H]1O [Compound 3l, N^6-(1,3,4-thiadiazol-2-yl-carbamoyl)-adenosine-5'-N-ethyluronamide]
Ki [1, 8]: 917 ± 254 nM | Ki [2]: 208 ± 42 nM | Ki [3]: 5550 ± 2800 nM | A1/A3 [4]: 0.037 | A2A/A3 [4]: 0.16

CCCOc1ccc(NC(=O)Nc2ncnc3c2ncn3[C@@H]2O[C@H](C(=O)NCC)[C@@H](O)[C@H]2O)cc1 [Compound 3m, N^6-(4-n-propoxy-phenylcarbamoyl)-adenosine-5'-N-ethyluronamide]
Ki [3]: 107 ± 34 nM | Ki [7]: 257 ± 43 nM | Ki [4]: 9.7 to 107 nM | A1/A3 [4]: 2.3 | A2A/A3 [4]: 2.4 | affinity and selectivity at A3 adenosine receptors [4]: relatively high affinity and selectivity at A3 adenosine receptors

CCNC(=O)[C@H]1O[C@@H](n2cnc3c(N(C(=O)Nc4ccc([N+](=O)[O-])cc4)C(=O)Nc4ccc([N+](=O)[O-])cc4)ncnc32)[C@H](O)[C@@H]1O [Compound 3n, N^6-bis-(4-nitrophenylcarbamoyl)-adenosine-5'-N-ethyluronamide]
Ki [1, 8]: 2530 ± 200 nM | Ki [5]: 89.1 ± 8.8 nM

CCNC(=O)[C@H]1O[C@@H](n2cnc3c(N(C(=O)Nc4ccc(Cl)cn4)C(=O)Nc4ccc(Cl)cn4)ncnc32)[C@H](O)[C@@H]1O [Compound 3o, N^6-bis-(5-chloro-pyridin-2-yl-carbamoyl)-adenosine-5'-N-ethyluronamide]
Ki [1, 8]: 799 ± 191 nM | Ki [2]: 761 ± 187 nM | Ki [3]: 5700 ± 100 nM | A1/A3 [4]: 0.13 | A2A/A3 [4]: 0.14

CNC(=O)[C@H]1O[C@@H](n2cnc3c(NCc4ccc(N)c(I)c4)ncnc32)[C@H](O)[C@@H]1O [I-AB-MECA, N^6-(4-amino-3-iodobenzyl)adenosine-5'-N-methyluronamide, reference compound]
effect on binding of [35S]GTP-γ-S (rat A3 receptor): increased binding of [^35 S]GTP-γ-S in a dose dependent manner

CNC(=O)[C@H]1O[C@@H](n2cnc3c(NCc4cccc(I)c4)ncnc32)[C@H](O)[C@@H]1O [IB-MECA, N^6-(3-iodobenzyl)adenosine-5'-N-methyluronamide]
behavioral effect (A3 receptor): induces behavioral depression | protection against cerebral ischemia (A3 receptor; chronic administration): protects against cerebral ischemia
